{
  "source": "patent US20090317419A1",
  "about": "“Tetramers” (Duke University, priority 2008, published 2009)",
  "key": {"[1]": {"tested_on": "mAb 13H11 and mAb 2F5 on beads", "details": "flow cytometry, mAbs 13H11 and 2F5 on beads", "method": "Antibody-coated beads. Carboxyl-polystyrene beads (3.0-3.4 μm) (Spherotech, Inc., Lake Forest, Ill.) were resuspended in 0.01 M sodium acetate buffer (pH 5.0) and reacted (20° C.×1 hr) with 1-ethyl-3-(3-dimethylaminopropyl) carbodiimide hydrochloride (EDC) (Sigma-Aldrich, Co., St. Louis, Mo.) at a ratio of 3.1 mg beads to 1 mg EDC. Beads were washed with sodium acetate buffer, resuspended in a minimal volume before adding purified mAb in the same buffer (ratio of 16 mg beads to 1 mg mAb), incubated (20° C.×2 hrs), then washed with sodium acetate buffer. Beads were resuspended at 5% in PBS containing 1% bovine serum albumin and 0.02% sodium azide.\nUse of antibody-coated beads and cell lines for tetramer quality control. Tetramer stocks were diluted to twice the desired final concentration in PBS containing 1% BSA. An equal volume of beads or cells at 5×10^5 up to 2×10^6 per sample were mixed with tetramer and incubated (4° C.×30 min). Beads or cells were washed with PBS+1% BSA before being fixed in 2% methanol-free formaldehyde (Polysciences, Inc, Warrington, Pa.) in PBS. Samples were stored at 4° C. prior to being analyzed by flow cytometry (BD LSR II, Becton Dickinson, Mountain View, Calif.). Data were analyzed using FlowJo (Tree Star, Ashland, Oreg.). For tetramer titration 40-80 ng tetramer per 10^6 cells/beads was serially diluted over 8-12 points. Optimal concentrations determined by this method were used for subsequent experiments. For cold competition experiments the incubation step was performed by staining with 10-fold excess unlabeled tetramer (4° C.×30 min) prior to the addition of APC-labeled tetramer. For cell dilution experiments, a mixture of mAb cell lines was made and then 1:10 serial dilutions of cells prepared. For cross competition experiments, mixtures of cells were prepared and then stained singly with anti-IgG reagents or tetramer, or the cells were doubly stained with both reagents either sequentially or concurrently."}, "[2]": {"tested_on": "mAb 2F5 (neutralizing anti-gp41 MPER)", "details": "SPR, mAb 2F5 captured", "method": "(§1) Surface Plasmon Resonance (SPR) measurements of tetramer binding to peptide epitopes. Tetramer binding assays were carried out on a BIAcore 3000 (BIAcore/GE Healthcare, Piscataway, N.J.) instrument using mAbs against each specific B cell epitope.\n(§2) Each mAb (about 1000 RU) was first captured on anti-human Fc mAb (Pierce, Rockford, Ill.) immobilized on a CM5 sensor chip. Approximately 3000 RU of anti-human Fc mAb was covalently coupled to each flow cell of the sensor chip as described before (Alam et al, Journal of Immunology 178:4424-4435 (2007)). Each B cell tetramer was injected over its epitope specific mAb or a control surface immobilized with irrelevant mAb. For each tetramer binding curve, non-specific binding signals obtained from the control surface were subtracted. The binding assay was monitored at 25° C. and using PBS, pH 7.4, as the running buffer. The BIAevaluation 3.0 software (BIAcore/GE Healthcare, Piscataway, N.J.) was used for SPR binding data analyses."}, "[3]": {"tested_on": "mAb 13H11 (non-neutralizing anti-gp41 MPER)", "details": "SPR, mAb 13H11 captured", "method": "as §1, §2"}, "[4]": {"tested_on": "naïve splenic B cells, C57BL/6 congenic strain bearing the IgH^a allotype", "method": "(§3) Mice. Female C57BL/6, BALB/c, B6Igh^a, and CB17 (BALBc Igh^b) inbred mouse strains (8-12 weeks of age) were purchased from Charles River Laboratories. All mice were housed in the Duke University Animal Facility in a pathogen-free environment with 12 hour light/dark cycles at 20-25° C. under AALAC guidelines and in accordance with all Institutional Animal Care and Use Committee and Duke University Institutional Biosafety Committee-approved animal protocols.\n(§4) Antibodies and flow cytometry. Immunofluorescent staining of single cell suspensions (≧2×10^6) was conducted using pre-mixed combinations of fluorochrome-labeled antibodies and APC-conjugated B cell tetramers at empirically-determined optimal concentrations. All antibodies were from BD unless otherwise stated. […] Other reagents included biotinylated antibodies against dump channel markers: Thy1 (Ox7; Abcam), F4/80 (BM8; Abcam), CD11c (clone HL3), Gr-1 (clone RB6-8C5), TER-119, and NK-1.1 (clone PK136), secondary staining SA-Texas Red conjugate; v-amine live/dead violet dye (Molecular Probes), and Fc block (anti-CD16/32; clone 2.4G2).\n(§5) Staining was conducted at 4° C. in several sequential steps in FACS staining buffer (1×PBS with 2% FCS, 0.1% NaN3), washing twice between steps. First, cells were incubated with v-amine live/dead dye for 15 min. Next, cells were stained with APC-labeled tetramers for 30 min. […]"}, "[5]": {"tested_on": "naïve splenic B cells, BALB/c congenic strain bearing the IgH^b allotype", "method": "as §3, §4, §5"}},
  "note": "Ends that are not written are not given here. * marks the point of attachment. Biotin = O=C1N[C@H]2[C@H](CS[C@H]2CCCCC(=O)*)N1",
  "data": [
    {"substance": "Biotin-GGGQQEKNEQELLELDKWASLWN [gp41 MPER tetramer]", "values": [
      {"measurement": "binding to antibody-coated beads", "setting": "[1]", "result": "bound to both the non-neutralizing mAb 13H11 and the neutralizing anti-gp41 mAb 2F5"},
      {"measurement": "koff", "setting": "[2]", "result": 0.37, "unit": "s^−1 × 10^−3"},
      {"measurement": "kon", "setting": "[2]", "result": 174, "unit": "M^−1s^−1 × 10^3"},
      {"measurement": "koff", "setting": "[3]", "result": 8.1, "unit": "s^−1 × 10^−3"},
      {"measurement": "kon", "setting": "[3]", "result": 206, "unit": "M^−1s^−1 × 10^3"},
      {"measurement": "tetramer binding to splenic B cells", "setting": "[4]", "result": "restores gp41 2F5 MPER binding"},
      {"measurement": "tetramer binding to splenic B cells", "setting": "[5]", "result": "completely loses gp41 2F5 MPER binding"}
    ]}
  ]
}
